From the NIST ThermoML archive (doi:10.1016/j.jct.2017.07.014)

How the values were obtained:
[1] = molar heat capacity at constant pressure; xn = mol fraction of the nth substance listed; conditions: 102.6 kPa, Liquid, Large sample (1 g) DSC, x1 = 0.107
[2] = refractive index (other wavelength) (dimensionless); xn = mol fraction of the nth substance listed; conditions: 108 kPa, Liquid, Wavelength=632.8 nm, minimum deviation method

CCCCn1cc[n+](C)c1.F[P-](F)(F)(F)(F)F [1-butyl-3-methylimidazolium hexafluorophosphate] + CCO
[1]
Conditions	molar heat capacity at constant pressure [J/K/mol]
314.31 K	176.72
314.64 K	177.08
314.97 K	177.44
315.29 K	177.86
315.62 K	178.15
315.94 K	178.8
316.27 K	179.08
316.59 K	179.58
316.92 K	179.87
317.24 K	180.44
317.57 K	180.87
317.89 K	181.23
318.22 K	181.8
318.55 K	182.3
318.87 K	182.66
319.19 K	183.3
319.52 K	183.87
319.85 K	184.38
320.17 K	184.88
320.5 K	185.38
320.82 K	186.02
321.15 K	186.45
321.47 K	187.09
321.8 K	187.95
322.12 K	188.6
322.45 K	189.38
322.77 K	190.17
323.1 K	190.89
323.42 K	191.96
323.75 K	192.96
324.07 K	194.61
324.4 K	195.89
324.73 K	198.26
325.05 K	201.76
325.38 K	205.34
325.7 K	210.28
326.03 K	181.08
326.35 K	178.08
326.68 K	176.79
327 K	175.93
327.33 K	175.36
327.65 K	174.93
327.98 K	174.57
328.31 K	174.36
328.63 K	174.29
328.96 K	174.07
329.28 K	173.93
329.61 K	173.79
329.93 K	173.72
330.26 K	173.64
330.58 K	173.57
330.91 K	173.5
331.23 K	173.43
331.56 K	173.43
331.88 K	173.43
332.21 K	173.43
332.53 K	173.29
332.86 K	173.43
333.19 K	173.43
333.51 K	173.43
333.84 K	173.36
334.16 K	173.5
334.49 K	173.57
334.81 K	173.72
335.14 K	173.86
335.46 K	174.22
335.78 K	173.72
336.09 K	173.29
336.38 K	173.07
336.76 K	172.93
337.09 K	172.79
337.41 K	173.5
337.74 K	174.07
338.06 K	174.07
338.39 K	174.14
338.72 K	174.43
339.05 K	174.22
339.35 K	174.07
339.69 K	174.72
340.04 K	174.72
340.35 K	175.07
340.66 K	175.58
340.99 K	175.29
341.32 K	175.07
341.64 K	175
341.98 K	175.29
342.3 K	174.93
342.6 K	175.58
342.93 K	175.43
343.26 K	175.79
343.6 K	175.65
343.91 K	175.72
344.24 K	175.72
344.56 K	175.79
344.9 K	175.86
345.21 K	176.08
345.55 K	175.93
345.87 K	175.86
346.19 K	176.15
346.54 K	176.65
346.86 K	176.43
347.17 K	177.08
347.51 K	176.72
347.82 K	176.65
348.15 K	176.79

[2]
Conditions	refractive index
315.21 K, x1 = 1	1.4038
317.26 K, x1 = 1	1.4032
319.23 K, x1 = 1	1.4027
320.24 K, x1 = 0.3	1.3841
320.24 K, x1 = 0.4	1.3889
320.24 K, x1 = 0.901	1.4008
320.25 K, x1 = 0.6	1.3951
320.25 K, x1 = 0.7	1.3973
320.26 K, x1 = 0.801	1.3992
320.27 K, x1 = 0.5	1.3923
321.27 K, x1 = 0.3	1.3838
321.27 K, x1 = 0.801	1.3989
321.27 K, x1 = 0.901	1.4005
321.28 K, x1 = 0.7	1.3971
321.29 K, x1 = 0.4	1.3886
321.29 K, x1 = 0.6	1.3949
321.35 K, x1 = 0.5	1.392
321.47 K, x1 = 1	1.4021
322.24 K, x1 = 0.3	1.3835
322.27 K, x1 = 0.7	1.3968
322.27 K, x1 = 0.901	1.4002
322.29 K, x1 = 0.4	1.3884
322.29 K, x1 = 0.5	1.3918
322.29 K, x1 = 0.6	1.3945
322.29 K, x1 = 0.801	1.3987
323.24 K, x1 = 0.901	1.4
323.25 K, x1 = 0.3	1.3832
323.27 K, x1 = 0.5	1.3915
323.28 K, x1 = 0.801	1.3984
323.3 K, x1 = 0.4	1.388
323.3 K, x1 = 0.6	1.3943
323.3 K, x1 = 0.7	1.3965
323.47 K, x1 = 1	1.4016
323.58 K, x1 = 0.2	1.3759
324.23 K, x1 = 0.801	1.3981
324.23 K, x1 = 0.901	1.3997
324.24 K, x1 = 0.7	1.3962
324.26 K, x1 = 0.3	1.3828
324.28 K, x1 = 0.4	1.3877
324.28 K, x1 = 0.6	1.394
324.3 K, x1 = 0.5	1.3912
324.56 K, x1 = 0.2	1.3756
325.26 K, x1 = 0.801	1.3979
325.28 K, x1 = 0.4	1.3874
325.28 K, x1 = 0.6	1.3938
325.31 K, x1 = 0.3	1.3825
325.31 K, x1 = 0.901	1.3994
325.32 K, x1 = 0.7	1.396
325.34 K, x1 = 0.5	1.3909
325.4 K, x1 = 1	1.4011
325.42 K, x1 = 0.1	1.3647
325.63 K, x1 = 0.2	1.3753
326.48 K, x1 = 0.4	1.387
326.51 K, x1 = 0.3	1.3822
326.58 K, x1 = 0.801	1.3975
326.59 K, x1 = 0.901	1.3991
326.6 K, x1 = 0.5	1.3905
326.6 K, x1 = 0.6	1.3934
326.61 K, x1 = 0.7	1.3956
326.64 K, x1 = 0.1	1.3643
327.05 K, x1 = 0.2	1.3748
327.64 K, x1 = 0.4	1.3867
327.65 K, x1 = 0.5	1.3902
327.67 K, x1 = 0.6	1.3931
327.73 K, x1 = 0.7	1.3953
327.75 K, x1 = 0.3	1.3817
327.86 K, x1 = 0.1	1.3639
327.91 K, x1 = 0.901	1.3987
327.93 K, x1 = 0.801	1.3972
328.27 K, x1 = 0.2	1.3744
328.91 K, x1 = 0.1	1.3636
329.44 K, x1 = 0.1	1.3634
